PMC4359714 (Naunyn-Schmiedeberg's Archives of Pharmacology, 2015)
pIC50: −log10 of the molar value. Where two headings read alike, the source gives them in different places.

What was measured:
[1] = test system: CFA-injected rats; assay: CFA-induced hypersensitivity (rearing on prickly floor); type: in vivo, rat; conditions: 100 mg/kg p.o.; p > 0.05 vs CFA vehicle ([…] s)
Experimental: Rats were habituated in a reversed light cycle room for at least 1 week and to the testing room for 1 h prior to dosing. […] Twenty-one hours after the CFA injection, animals were treated (p.o.) with vehicle (5 % Tween 80 in OraPlus®) or TRPM8 antagonist. Two hours after drug dosing (23 h after CFA injection), rats were placed in the same Kinder Scientific open field boxes as described above but with customized prickly floor inserts placed inside. Rearing time and rearing counts were measured for 60 min.

[2] = molecular target: T1, rat TRPV1 (Rattus norvegicus, UniProt O35433); assay: Luminescence (aequorin) readout of intracellular calcium, CHO cells expressing rat TRPV1, capsaicin activation; type: cell-based; conditions: 0.5 uM capsaicin, read-out: rTRPV1 IC50
T1 construct: expressed in transfected cells; host or cells: CHO, constitutive expression, co-transfected with aequorin
Excerpt: (§1) Stable Chinese hamster ovary (CHO) cell lines expressing rat TRPA1, rat TRPM8, rat TRPV3, and human TRPV4 were generated using the tetracycline-inducible T-REx™ expression system from Invitrogen (Carlsbad, CA) and a stable CHO cell line expressing rat TRPV1 was generated using a constitutive expression system (Klionsky et al. [2007]). To enable a luminescence readout based on intracellular increase in calcium (Le Poul et al. [2002]), each cell line was also co-transfected with pcDNA3.1 plasmid containing jelly fish aequorin cDNA. Twenty-four hours before the assay, cells were seeded in 96-well plates and all TRP channel expression, except for TRPV1, was induced with 0.5 ug/mL tetracycline. […] Luminescence was measured by a CCD camera-based FLASH-luminometer built by Amgen, Inc. The following agonists were used to activate TRP channels: 0.5 uM capsaicin for TRPV1, 80 uM allyl isothiocyanate (AITC) for TRPA1, 1 uM icilin or cold buffer (12 °C) for TRPM8, 200 uM aminoethoxydiphenyl borate (2-APB) for TRPV3, and 1 uM 4α-phorbol 12,13-didecanoate (4α-PDD) for TRPV4. Antagonist IC50 values were calculated using GraphPad Prism 4.01 (GraphPad Software Inc, San Diego, CA).

[3] = test system: cold pressor effect in rats; assay: Cold-induced increase in blood pressure, cold pressor test (CPT); type: in vivo, rat; conditions: 10 mg/kg p.o.
Experimental: 2 h prior to anesthesia with sodium pentobarbital at 60 mg/kg i.p. Blood pressure was recorded for 5 min for “pre-cold baseline” and an additional 5 min during immersion of the paws and ventral half of the body in ice water. Mean blood pressure (MBP) was derived electronically using Digi-Med Blood Pressure Analyzer (Model 400). Plasma was collected through the artery catheter immediately after the cold pressor test for pharmacokinetic analysis. Percent increase from baseline and percent inhibition attributed to treatment with test compound were then determined using the following formula: (1) percent increase from baseline (mmHg) cold pressor effect = [(cold-evoked change in MBP)/MBP pre-cold] × 100; (2) percent inhibition of cold pressor effect = [1 − (cold-evoked change in MBP post-test compound/cold-evoked change in MBP post-vehicle)] × 100.

[4] = test system: rats; assay: Open field activity; type: in vivo, rat; conditions: 100 mg/kg, 2 h before; 60 min; not significantly different from vehicle (14,484 ± 1686 cm)
Experimental: Rats were habituated in a reversed light cycle room in home cages for at least 1 week and acclimated to the testing room for 1 h prior to dosing. TRPM8 antagonist (10, 30, or 100 mg/kg) or vehicle (5 % Tween 80 in OraPlus®) was injected 2 h before placing an animal in the open-field apparatus. Open-field activity was measured using a system that counts interruptions of a set of photobeams for the course of 60 min (Kinder Scientific, Poway, CA). To begin a session, animals were removed from the home cage and placed individually into an independent Plexiglas box (41 cm L × 41 cm W × 38 cm H) surrounded by a frame consisting of 32 photocells (16Y and 16X) that track the movement of the animal. Photobeam breaks were used as an indication of activity and were measured as the following parameters per minute: basic movements (beam breaks), distance traveled (cm), time spent (s), and number of repetitive beam breaks (i.e., stereotypic movement). Chlordiazepoxide, which consistently elicits a decrease in open field activity, was used as a positive control. Chlordiazepoxide was formulated in saline at 5.6 mg/kg i.p. and dosed 30 min before the start of the open field assay.

[5] = molecular target: T2, rat TRPA1 (Rattus norvegicus, UniProt Q6RI86); assay: Luminescence (aequorin) readout of intracellular calcium, CHO cells expressing rat TRPA1, AITC activation; type: cell-based
T2 construct: expressed in transfected cells; host or cells: CHO, T-REx tetracycline-inducible system (Invitrogen), co-transfected with aequorin
Excerpt: as §1

T2 sequence (Q6RI86 whole entry): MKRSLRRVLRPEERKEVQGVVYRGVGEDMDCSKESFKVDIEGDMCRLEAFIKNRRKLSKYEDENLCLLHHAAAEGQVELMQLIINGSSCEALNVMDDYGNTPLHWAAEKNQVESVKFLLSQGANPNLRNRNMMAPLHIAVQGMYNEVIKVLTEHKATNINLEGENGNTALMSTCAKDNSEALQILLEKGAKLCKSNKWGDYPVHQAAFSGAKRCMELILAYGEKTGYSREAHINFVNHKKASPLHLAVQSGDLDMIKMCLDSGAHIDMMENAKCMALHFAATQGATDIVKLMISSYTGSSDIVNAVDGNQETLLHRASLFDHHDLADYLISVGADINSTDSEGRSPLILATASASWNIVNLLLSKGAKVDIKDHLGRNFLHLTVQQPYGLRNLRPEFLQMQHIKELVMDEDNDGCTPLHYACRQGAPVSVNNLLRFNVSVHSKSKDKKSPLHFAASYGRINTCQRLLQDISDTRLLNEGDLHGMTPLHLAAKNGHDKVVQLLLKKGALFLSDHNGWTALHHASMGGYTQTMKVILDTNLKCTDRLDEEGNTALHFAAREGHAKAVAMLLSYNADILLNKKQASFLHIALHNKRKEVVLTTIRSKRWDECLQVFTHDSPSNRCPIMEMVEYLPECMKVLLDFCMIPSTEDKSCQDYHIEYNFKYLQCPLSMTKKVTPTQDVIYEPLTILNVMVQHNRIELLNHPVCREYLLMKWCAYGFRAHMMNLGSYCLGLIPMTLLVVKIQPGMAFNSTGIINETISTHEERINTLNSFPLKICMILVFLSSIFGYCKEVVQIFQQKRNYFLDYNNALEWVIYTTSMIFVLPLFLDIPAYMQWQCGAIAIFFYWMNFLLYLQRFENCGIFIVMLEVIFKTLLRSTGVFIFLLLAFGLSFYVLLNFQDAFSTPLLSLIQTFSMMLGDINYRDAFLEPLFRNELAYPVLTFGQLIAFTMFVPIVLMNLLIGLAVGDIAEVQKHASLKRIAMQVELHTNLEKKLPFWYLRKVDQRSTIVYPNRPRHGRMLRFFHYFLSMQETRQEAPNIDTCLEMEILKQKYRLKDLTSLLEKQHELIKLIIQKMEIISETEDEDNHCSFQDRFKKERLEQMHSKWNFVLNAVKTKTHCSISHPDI
T1 sequence (O35433 whole entry): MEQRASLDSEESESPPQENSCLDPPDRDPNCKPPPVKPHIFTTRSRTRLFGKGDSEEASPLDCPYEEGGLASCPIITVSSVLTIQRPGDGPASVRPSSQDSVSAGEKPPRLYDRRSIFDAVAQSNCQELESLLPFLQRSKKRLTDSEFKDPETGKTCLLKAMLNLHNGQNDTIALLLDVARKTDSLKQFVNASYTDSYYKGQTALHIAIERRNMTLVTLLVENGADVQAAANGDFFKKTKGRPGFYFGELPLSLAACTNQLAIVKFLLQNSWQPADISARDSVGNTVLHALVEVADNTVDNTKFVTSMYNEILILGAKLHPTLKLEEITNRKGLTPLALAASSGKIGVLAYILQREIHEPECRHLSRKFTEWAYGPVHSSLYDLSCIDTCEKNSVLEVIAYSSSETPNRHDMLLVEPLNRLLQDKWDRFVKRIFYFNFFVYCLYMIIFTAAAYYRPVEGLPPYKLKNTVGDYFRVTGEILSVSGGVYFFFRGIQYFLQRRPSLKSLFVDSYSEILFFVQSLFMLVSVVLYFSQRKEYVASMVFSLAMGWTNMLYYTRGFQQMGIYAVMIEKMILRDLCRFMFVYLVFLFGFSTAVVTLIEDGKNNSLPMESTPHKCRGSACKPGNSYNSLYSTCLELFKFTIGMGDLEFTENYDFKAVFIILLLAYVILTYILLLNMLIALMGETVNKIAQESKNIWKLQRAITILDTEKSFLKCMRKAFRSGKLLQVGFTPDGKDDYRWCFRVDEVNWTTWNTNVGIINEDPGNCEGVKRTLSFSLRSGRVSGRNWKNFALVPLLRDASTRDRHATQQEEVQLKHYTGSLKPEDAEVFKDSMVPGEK

C[C@H](NC(=O)N1CCc2cccnc2[C@H]1c1ccc(C(F)(F)F)cc1)C(F)(F)F [AMG2850, (R)-8-(4-(trifluoromethyl)phenyl)-N-((S)-1,1,1-trifluoropropan-2-yl)-5,6-dihydro-1,7-naphthyridine-7(8H)-carboxamide]
rearing time, CFA model [1]: 157 ± 25 s | pIC50 [2]: < 4.60 | effect on cold pressor response [3]: fully blocked | total distance traveled, open field [4]: 13,640 ± 623 cm | pIC50 ([5]; 80 uM AITC, read-out: rTRPA1 IC50): < 4.60 | pIC50 ([5]; agonism, read-out: rTRPA1 agonism IC50): < 4.60
